Experimental data reported in publication PMC9516332 (Frontiers in Oncology, 2022).
Like-named read-outs stand apart in the source and are kept apart here.

Assays:
134 cancer cell lines = assay: Cell viability assay (ATPlite, 72 hours), IC50 on cancer cell line panel
[1] = biological target: panel of 255 wild-type kinases (Homo sapiens, UniProt Q13177); assay: Kinase panel profiling at 1 µmol/L (MSA or IMAP), percentage inhibition; format: biochemical; settings: PAK2; 1 µmol/L single concentration; read-out: %-inhibition, PAK2
[2] = biological target: panel of 255 wild-type kinases (Homo sapiens, UniProt O75582); assay: as above; format: biochemical; settings: MSK1; 1 µmol/L single concentration; read-out: %-inhibition, MSK1
[3] = biological target: panel of 255 wild-type kinases (Homo sapiens, UniProt Q9HBH9); assay: as above; format: biochemical; settings: MNK2; 1 µmol/L single concentration; read-out: %-inhibition, MNK2
[4] = biological target: panel of 255 wild-type kinases (Homo sapiens, UniProt P49760); assay: as above; format: biochemical; settings: kinase CLK2; 1 µmol/L single concentration; read-out: %-inhibition at 1 µmol/L, CLK2
[5] = biological target: panel of 255 wild-type kinases (Homo sapiens, UniProt Q00526); assay: as above; format: biochemical; settings: CDK3/CycE1 kinase assay; 1 µmol/L single concentration; read-out: %-inhibition CDK3/CycE1
[6] = biological target: panel of 255 wild-type kinases (Homo sapiens, UniProt P22607); assay: as above; format: biochemical; settings: kinase FGFR3; 1 µmol/L single concentration; read-out: %-inhibition at 1 µmol/L, FGFR3
[7] = biological target: panel of 255 wild-type kinases (Homo sapiens, UniProt Q96RG2); assay: as above; format: biochemical; settings: PASK; 1 µmol/L single concentration; read-out: %-inhibition, PASK
[8] = biological target: panel of 255 wild-type kinases (Homo sapiens, UniProt P45983); assay: as above; format: biochemical; settings: kinase JNK1; 1 µmol/L single concentration; read-out: %-inhibition at 1 µmol/L, JNK1
AP-1060 (ETV6-NTRK3) = assay: Cell viability assay; settings: read-out: IC50 in cell proliferation assay

Q: For `C[C@H]1Oc2cc(cnc2N)-c2c(nn(C)c2C#N)CN(C)C(=O)c2ccc(F)cc21` [lorlatinib], which IC50 (134 cancer cell lines; Homo sapiens, MG-63, read-out: IC50 in cell proliferation assay) is on record?
A: Its IC50 is 8.74 µM.

Q: And the IC50 (134 cancer cell lines; Homo sapiens, MIA PaCa-2, read-out: IC50 in cell proliferation assay)?
A: Its IC50 is over 31.6 µM.

Q: And the IC50 (134 cancer cell lines; Homo sapiens, MKN-45, read-out: IC50 in cell proliferation assay)?
A: Its IC50 is over 31.6 µM.

Q: And the IC50 (134 cancer cell lines; Homo sapiens, MOLM-13, read-out: IC50 in cell proliferation assay)?
A: The IC50 was 21.1 µM.

Q: What about the IC50 (134 cancer cell lines; Homo sapiens, MOLT-4, read-out: IC50 in cell proliferation assay) of the same compound?
A: Its IC50 is 6.72 µM.

Q: And the IC50 (134 cancer cell lines; Homo sapiens, MV4-11, read-out: IC50 in cell proliferation assay)?
A: Its IC50 is 15.6 µM.

Q: And the IC50 (134 cancer cell lines; Homo sapiens, MeWo, read-out: IC50 in cell proliferation assay)?
A: Its IC50 is over 31.6 µM.

Q: What about the IC50 (134 cancer cell lines; Homo sapiens, NCCIT, read-out: IC50 in cell proliferation assay) of the same compound?
A: The IC50 was over 31.6 µM.

Q: What about the IC50 (134 cancer cell lines; Homo sapiens, NCI-H82, read-out: IC50 in cell proliferation assay) of the same compound?
A: The IC50 was 6.06 µM.

Q: What about the IC50 (134 cancer cell lines; Homo sapiens, NCI-H460, read-out: IC50 in cell proliferation assay) of the same compound?
A: The IC50 was 18.4 µM.

Q: And the IC50 (134 cancer cell lines; Homo sapiens, NCI-H661, read-out: IC50 in cell proliferation assay)?
A: The IC50 was 6.73 µM.

Q: And the IC50 (134 cancer cell lines; Homo sapiens, NCI-H716, read-out: IC50 in cell proliferation assay)?
A: The IC50 was 9.52 µM.

Q: What about the IC50 (134 cancer cell lines; Homo sapiens, NCI-H1650, read-out: IC50 in cell proliferation assay) of the same compound?
A: Its IC50 is 23.9 µM.

Q: And the IC50 (134 cancer cell lines; Homo sapiens, NCI-H1975, read-out: IC50 in cell proliferation assay)?
A: Its IC50 is 9.89 µM.

Q: And the IC50 (134 cancer cell lines; Homo sapiens, NCI-H2228, read-out: IC50 in cell proliferation assay)?
A: Its IC50 is 0.000918 µM.

Q: And the IC50 (134 cancer cell lines; Homo sapiens, OVCAR-3, read-out: IC50 in cell proliferation assay)?
A: The IC50 was over 31.6 µM.

Q: And the IC50 (134 cancer cell lines; Homo sapiens, PFSK-1, read-out: IC50 in cell proliferation assay)?
A: The IC50 was 7.69 µM.

Q: What about the IC50 (134 cancer cell lines; Homo sapiens, RL95-2, read-out: IC50 in cell proliferation assay) of the same compound?
A: The IC50 was 0.035 µM.

Q: And the IC50 (134 cancer cell lines; Homo sapiens, RPMI-7951, read-out: IC50 in cell proliferation assay)?
A: Its IC50 is 0.818 µM.

Q: What about the IC50 (134 cancer cell lines; Homo sapiens, RS4-11, read-out: IC50 in cell proliferation assay) of the same compound?
A: Its IC50 is 11.2 µM.

Q: And the IC50 (134 cancer cell lines; Homo sapiens, Rec1, read-out: IC50 in cell proliferation assay)?
A: The IC50 was 8.26 µM.

Q: What about the IC50 (134 cancer cell lines; Homo sapiens, SHP77, read-out: IC50 in cell proliferation assay) of the same compound?
A: The IC50 was over 31.6 µM.

Q: What about the IC50 (134 cancer cell lines; Homo sapiens, SK-BR-3, read-out: IC50 in cell proliferation assay) of the same compound?
A: The IC50 was over 31.6 µM.

Q: What about the IC50 (134 cancer cell lines; Homo sapiens, SK-N-AS, read-out: IC50 in cell proliferation assay) of the same compound?
A: The IC50 was over 31.6 µM.

Q: What about the IC50 (134 cancer cell lines; Homo sapiens, SK-N-FI, read-out: IC50 in cell proliferation assay) of the same compound?
A: Its IC50 is 21.5 µM.

Q: What about the IC50 (134 cancer cell lines; Homo sapiens, SK-N-MC, read-out: IC50 in cell proliferation assay) of the same compound?
A: The IC50 was 6.17 µM.

Q: And the IC50 (134 cancer cell lines; Homo sapiens, SK-N-SH, read-out: IC50 in cell proliferation assay)?
A: Its IC50 is 5.69 µM.

Q: And the IC50 (134 cancer cell lines; Homo sapiens, SNU-5, read-out: IC50 in cell proliferation assay)?
A: The IC50 was over 31.6 µM.

Q: What about the IC50 (134 cancer cell lines; Homo sapiens, SNU-16, read-out: IC50 in cell proliferation assay) of the same compound?
A: Its IC50 is 31.5 µM.

Q: And the IC50 (134 cancer cell lines; Homo sapiens, SNU-C2B, read-out: IC50 in cell proliferation assay)?
A: The IC50 was over 31.6 µM.

Q: What about the IC50 (134 cancer cell lines; Homo sapiens, SU-DHL-1, read-out: IC50 in cell proliferation assay) of the same compound?
A: Its IC50 is 0.008 µM.

Q: What about the IC50 (134 cancer cell lines; Homo sapiens, SU-DHL-6, read-out: IC50 in cell proliferation assay) of the same compound?
A: The IC50 was 24.1 µM.

Q: And the IC50 (134 cancer cell lines; Homo sapiens, SUP-T1, read-out: IC50 in cell proliferation assay)?
A: The IC50 was 23.2 µM.

Q: What about the IC50 (134 cancer cell lines; Homo sapiens, SW48, read-out: IC50 in cell proliferation assay) of the same compound?
A: Its IC50 is 8.62 µM.

Q: And the IC50 (134 cancer cell lines; Homo sapiens, SW480, read-out: IC50 in cell proliferation assay)?
A: The IC50 was over 31.6 µM.

Q: What about the IC50 (134 cancer cell lines; Homo sapiens, SW626, read-out: IC50 in cell proliferation assay) of the same compound?
A: Its IC50 is 8.56 µM.

Q: What about the IC50 (134 cancer cell lines; Homo sapiens, SW780, read-out: IC50 in cell proliferation assay) of the same compound?
A: Its IC50 is 16 µM.

Q: What about the IC50 (134 cancer cell lines; Homo sapiens, SW837, read-out: IC50 in cell proliferation assay) of the same compound?
A: The IC50 was over 31.6 µM.

Q: And the IC50 (134 cancer cell lines; Homo sapiens, SW872, read-out: IC50 in cell proliferation assay)?
A: Its IC50 is 6.65 µM.

Q: What about the IC50 (134 cancer cell lines; Homo sapiens, SW900, read-out: IC50 in cell proliferation assay) of the same compound?
A: Its IC50 is 15.1 µM.

Q: And the IC50 (134 cancer cell lines; Homo sapiens, SW948, read-out: IC50 in cell proliferation assay)?
A: The IC50 was 17 µM.

Q: And the IC50 (134 cancer cell lines; Homo sapiens, SW982, read-out: IC50 in cell proliferation assay)?
A: The IC50 was 0.052 µM.

Q: What about the IC50 (134 cancer cell lines; Homo sapiens, SW-620, read-out: IC50 in cell proliferation assay) of the same compound?
A: Its IC50 is 17 µM.

Q: And the IC50 (134 cancer cell lines; Homo sapiens, T98G, read-out: IC50 in cell proliferation assay)?
A: The IC50 was 11.4 µM.

Q: And the IC50 (134 cancer cell lines; Homo sapiens, TCC-SUP, read-out: IC50 in cell proliferation assay)?
A: Its IC50 is over 31.6 µM.

Q: And the IC50 (134 cancer cell lines; Homo sapiens, THP-1, read-out: IC50 in cell proliferation assay)?
A: The IC50 was over 31.6 µM.

Q: And the IC50 (134 cancer cell lines; Homo sapiens, U2OS, read-out: IC50 in cell proliferation assay)?
A: Its IC50 is 8.64 µM.

Q: What about the IC50 (134 cancer cell lines; Homo sapiens, U-87 MG, read-out: IC50 in cell proliferation assay) of the same compound?
A: The IC50 was over 31.6 µM.

Q: And the IC50 (134 cancer cell lines; Homo sapiens, U-118-MG, read-out: IC50 in cell proliferation assay)?
A: Its IC50 is over 31.6 µM.

Q: What about the IC50 (134 cancer cell lines; Homo sapiens, UMUC3, read-out: IC50 in cell proliferation assay) of the same compound?
A: The IC50 was over 31.6 µM.

Q: What about the IC50 (134 cancer cell lines; Hs766T, read-out: IC50 in cell proliferation assay) of the same compound?
A: The IC50 was over 31.6 µM.

Q: What about the IC50 (134 cancer cell lines; L-82, read-out: IC50 in cell proliferation assay) of the same compound?
A: The IC50 was 0.00122 µM.

Q: What about the IC50 (134 cancer cell lines; Rh30, read-out: IC50 in cell proliferation assay) of the same compound?
A: The IC50 was 9.22 µM.

Q: And the inhibition at 1 µM [1]?
A: Its inhibition at 1 µM is 11%.

Q: What about the inhibition at 1 µM [2] of the same compound?
A: Its inhibition at 1 µM is -8%.

Q: And the inhibition at 1 µM [3]?
A: Its inhibition at 1 µM is 13%.

Q: What about the inhibition at 1 µM [4] of the same compound?
A: Its inhibition at 1 µM is 2.49%.

Q: And the inhibition at 1 µM [5]?
A: The inhibition at 1 µM was 3%.

Q: What about the inhibition at 1 µM [6] of the same compound?
A: Its inhibition at 1 µM is -0.405%.

Q: What about the inhibition at 1 µM [7] of the same compound?
A: The inhibition at 1 µM was 0.792%.

Q: What about the inhibition at 1 µM [8] of the same compound?
A: Its inhibition at 1 µM is -0.746%.

Q: What about the IC50 (AP-1060 (ETV6-NTRK3)) of the same compound?
A: Its IC50 is 10.7 µM.
